For 133 molecules, logP and logD results are on record in the SangsterLogP compilation.

As usually defined, the logP is the decadic logarithm of the partition coefficient of the neutral form, usually between octanol and water. Low readings indicate a more hydrophilic compound, high ones a more lipophilic compound. By logD is commonly meant lipophilicity at a set pH, counting ionised and neutral species. Low readings indicate a more hydrophilic compound, high ones a more lipophilic compound.

Structures are written as SMILES.

The molecule `Nc1c([N+](=O)[O-])cccc1[N+](=O)[O-]` yielded a lipophilicity (logP) of 1.79.
`COC(=O)CC(=O)OC` came in with a logP of -0.05.
As for `N#Cc1ccc(C#N)cc1`, the logP was determined as 0.93.
Molecule `COc1ccc(CC#N)cc1` gave a logP of 1.7.
In the case of `Cc1cc2ccccc2cn1`, the logP is 2.68.
`COC(=O)c1ccc(NC(C)=O)cc1` showed a logD (pH 7.0) of 1.64.
Consider `CCCc1ncc([N+](=O)[O-])n1CCNC(=S)OC`, for which the logD (pH 7.4) stood at 1.94.
In turn, `COc1ccc([N+](=O)[O-])cn1` had a logP of 1.55.
`FC(F)(F)C(=NNc1ccc(Cl)c(Cl)c1)C(F)(F)F` came in with a logD (pH 4.0) of 5.1.
In turn, `O=C(O)c1ccc2c(c1)OCCOCCOCCOCCOCCO2` returned a logP of -0.28.
The molecule `CN(C)c1ccc2c(c1)C(c1ccccc1Cl)=NCC(=O)N2C` registered a pH-dependent lipophilicity (logD) (pH 7.4) of 2.72.
With `NC(=O)OCCc1cccc2c1C(=O)C(Br)=C(N1CC1)C2=O`, the logP amounted to 0.68.
Still for that read-out and setting: to `Cc1c(Cl)ccc(OC(C)C(=O)Nc2ccccc2)c1Cl` (stereo not drawn) belongs 4.8; to `N#Cc1ccc2[nH]c(N)nc2c1`, 1.13.
`CCCCn1cc(C)c(=O)[nH]c1=O`: the logP was 0.91.
On to `CC1=C(N2CC2)C(=O)c2ccc(CCOC(N)=O)c(N3CC3)c2C1=O`, for which the log partition coefficient (logP) came out at 0.16.
The molecule `N#CNc1ccccc1` yielded a log partition coefficient (logP) of 1.87.
As to `CN(C)c1ccc(C(=O)c2ccc(N(C)C)cc2)cc1`, the logP came out at 3.87.
The same measure, in the same setting: the same measure for `CS(=O)(=O)N(c1ccccc1[N+](=O)[O-])S(C)(=O)=O`: 0.81; for `Clc1c(Cl)c(Cl)c2ccccc2c1Cl`: 5.75.
`C=CCN1CCc2nc(N)sc2CC1`: under “pH 10.6”, the logD was found to be 1.48.
For `O=C1C=CCO1`, the logP is -0.6.
For the setting “pH 7.4”, `N#Cc1cccc2cccnc12` registered a logD of 1.39.
Take `COc1ccccc1NC(=O)Nc1ccccc1OC`: the logP was 2.98.
Molecule `NC(=O)c1nc[nH]c1N=NN(CCO)CCO` gave a logD (pH 4.2) of -1.04.
On to `CC(=O)N(C)Nc1ccccc1`, for which the logP came to 1.31.
`CCCCSP(=O)(SCCCC)SCCCC` yielded a logP of 3.23.
In turn, `O=C(O)Cc1ccc2ccccc2c1` had a logD (pH 1.0) of 2.81.
Molecule `CCOC(=O)NNc1ccccc1` displayed a log partition coefficient (logP) of 1.22.
`CC1(C)CNC(=NN=C(C=Cc2ccc(C(F)(F)F)cc2)C=Cc2ccc(C(F)(F)F)cc2)NC1` had a logP of 2.31.
For the molecule `CCOc1ccc(C(C)(C)COCc2cccc(Oc3ccccc3)c2)cc1`, the logP amounted to 7.05.
As for `O/N=C/c1ccccc1`, the logP was 1.85.
`CNC1=C(N2CC2)C(=O)C(NC)=C(N2CC2)C1=O` showed a logP of 0.13.
`COc1c2c(cc3c1-c1ccc(OC)c(=O)cc1C(NC(C)=O)CC3)OCO2` (stereo not drawn) displayed a logD (pH 7.0) of 1.6.
As for `Cc1cc(C)c2c(c1)C(c1ccccc1)=NCC(=O)N2`, the logD (pH 7.4) turned out to be 2.94.
`Clc1cc(Cl)c2cc(Cl)cc(Cl)c2c1` came in with a logP of 6.19.
With `Cc1ccc(C(=O)COc2c(C(=O)c3ccc(Cl)c(C)c3Cl)c(C)nn2C)cc1`, the logP amounted to 4.69.
As to `CCc1ncc([N+](=O)[O-])n1C`, under “pH 7.4”, the logD worked out at 0.62.
On to `N#Cc1sc2c(=O)c3ccccc3c(=O)c=2sc1C#N`, for which the logP turned out to be 2.84.
For the setting “pH 2.1”, `CCCCCCOc1ccc(S(N)(=O)=O)cc1[N+](=O)[O-]` came in with a logD of 3.03.
For `CCCCNc1ccc(C(=O)OCCOCCOCCOCCOCCOCCOCCOCCOCCOC)cc1`, the log partition coefficient (logP) came to 2.45.
For `CC(C)c1ccc([N+](=O)[O-])cc1`, for the setting “pH 7.4”, the logD was found to be 3.45.
Molecule `Cc1ccnc2ccccc12` had a logD (pH 7.4) of 2.61.
With `CCCCN(CC)c1c([N+](=O)[O-])cc(C(F)(F)F)cc1[N+](=O)[O-]`, the pH-dependent lipophilicity (logD) (pH 7.0) stood at 5.29.
Take `NCCCN`: the logD (pH 13.0) was -1.43.
On to `c1csc(C23CCCN2CCO3)c1` (stereo not drawn), for which, for the setting “pH 7.4”, the logD worked out at 1.05.
Consider `Cn1c(N)nc2cc(C#N)ccc21`, for which the logP is 1.11.
In turn, `O=C1C(=O)c2ccccc2-c2ccccc21` yielded a lipophilicity (logP) of 2.52.
The molecule `CCOC(=O)CCl` returned a logD (pH 5.0) of 0.94.
In the case of `C1=COCCC1`, the logP turned out to be 0.69.
Consider `CCOC(CC)(OCC)OCC`, for which the pH-dependent lipophilicity (logD) (pH 13.0) is 1.97.
The molecule `CNC1=CC(=O)C(NC)=CC1=O` yielded a logP of 0.34.
Regarding `Cc1cn([C@@H]2O[C@H](CO)[C@@H](O)[C@H]2O)c(=O)nc1N`, the logD (pH 7.0) was -2.01.
Regarding `Cc1cc2c3ccccc3nc-2[nH]c1N`, the log distribution coefficient (logD) (pH 7.4) stood at 2.9.
Take `c1ccc(-c2ccncn2)cc1`: the logP is 1.92.
For the molecule `Nc1ncc(Cc2cccc(Cl)c2Cl)c(N)n1`, the logD (pH 13.0) is 2.81.
As for `CC1(C)CCCC(C)(C)N1`, under “pH 13.0”, the logD came out at 2.15.
Consider `CCCCC(=O)OC`, for which the log partition coefficient (logP) was 1.96.
Take `CCCCc1c(C)[nH]c(N(C)C)nc1=O`: the logP was found to be 1.9.
As for `COC(=O)CC(C)C`, the logP was 1.82.
`O=C(O)/C=C/c1ccc([N+](=O)[O-])cc1`: under “pH 1.0”, the logD was found to be 2.12.
`N#CC#N` registered a logP of 0.07.
Turning to `CC1(C)N=C(N)N=C(N)N1c1cccc(OCCOc2ccccc2)c1`, the logP was -0.84.
The same measure, in the same setting: to `NC(=O)OCCC1=C(N2CC2)C(=O)C(Br)=C(N2CC2)C1=O` belongs 0.68.
For `CC(C(=O)O)c1ccc(N2C(=O)C3CC=CCC3C2=O)cc1` (stereo not drawn), the logP stood at 2.27.
The molecule `O=C(CCBr)N1CCN(C(=O)CCBr)CC1` yielded a logP of 0.42.
`CCc1cccc(C)c1NC(=O)OC(C)C` gave a logP of 2.52.
Same read-out and setting: the same measure for `C=CCSc1ccccc1`: 3.51; for `CN(C)C(=O)SCCCCOc1ccccc1`: 3.28.
Take `Nc1ncc(Cc2ccccc2Cl)c(N)n1`: where the note is “pH 13.0”, the logD came to 2.24.
`CS(=O)c1ccc2c(c1)C(c1ccccc1)=NCC(=O)N2` (stereo not drawn): the logD (pH 7.4) stood at 0.8.
For the molecule `CCCC(=O)OC`, the lipophilicity (logP) turned out to be 1.29.
Molecule `COC(=O)CCCCC(=O)OC` gave a logP of 1.03.
On to `CC(O)CNC(=O)C(F)(F)Cn1cnc([N+](=O)[O-])n1` (stereo not drawn), for which the logP is -0.48.
`Fc1cccc2cccnc12` yielded a logD (pH 7.4) of 2.19.
Consider `Cn1cc2ccc([N+](=O)[O-])cc2n1`, for which, where the note is “pH 7.4”, the logD is 1.76.
The molecule `FC1(F)C(F)(F)C(F)(F)C(F)(F)C(F)(F)C1(F)F` displayed a logP of 2.91.
Regarding `CNc1c(Cl)cccc1Cl`, the logP was 2.91.
With `O=C1C=C(N2CC=CC2)C(=O)c2ccccc21`, the logP is 2.85.
`Cc1ccc(-c2noc(C)n2)cc1` yielded a log partition coefficient (logP) of 2.74. This logP and that of the molecule before are within 0.2 log units of each other.
In turn, `Cn1c([N+](=O)[O-])cnc1COc1ccc(Cl)cc1` returned a pH-dependent lipophilicity (logD) (pH 7.4) of 1.8.
Regarding `CCOC(OCC)OCC`, the logD (pH 13.0) is 1.2.
As for `CCCSP(=O)(OCC)Oc1cnn(-c2ccc(Cl)cc2)c1` (stereo not drawn), the logP came to 3.77.
The same measure, in the same setting: to `CC(=O)CCC(C)=O` belongs -0.27.
On to `Cc1ccc(C=Cc2ncc([N+](=O)[O-])n2CO)cc1`, for which, where the note is “pH 7.4”, the logD is 2.25.
In the case of `COP(=O)(OC)OC(C)=CC(=O)N(C)C`, the logP was determined as 0.
As to `COc1ccc2cc(C(C)C(=O)OCC(=O)N(C)CC(N)=O)ccc2c1` (stereo not drawn), the logP worked out at 1.37.
`O=C1C=C(N2CC2)C(=O)C=C1N1CC1`: the logP was found to be 0.18.
The same measure, in the same setting: the same measure for `Nc1cc(C(F)(F)F)ccc1Cl`: 3.06.
Same read-out and setting: the same measure for `O=[N+]([O-])c1ccccc1SSc1ccccc1[N+](=O)[O-]`: 3.37.
`Cc1c[nH]cn1` registered a logD (pH 9.0) of 0.23.
`Sc1nc(-c2ccccc2)ns1` gave a logD (pH 5.0) of 2.13.
`ClCC#CCCl` displayed a logP of 2.01.
Molecule `O=[N+]([O-])c1ccc(/C=C/c2ncc[nH]2)o1` had a logP of 1.32.
`CNc1nc2c3cccnc3ccc2n1C`: the logD (pH 7.4) was found to be 1.82.
`CCn1cnc([N+](=O)[O-])n1` had a logP of -0.23.
On the same count and under the same terms, the same measure for `CNC(=S)NNc1ccccc1`: 1.17.
In turn, `C=CCOC(Cn1ccnc1)c1ccc(Cl)cc1Cl` (stereo not drawn) yielded a pH-dependent lipophilicity (logD) (pH 9.2) of 3.82.
`CC(=O)COc1ccccc1` returned a logP of 1.04.
With `CN(C)C(=O)C12CC3CC(CC(C3)C1)C2`, the logP was found to be 2.55.
Same read-out and setting: the same measure for `C=CCn1cccn1`: 0.35; for `O=C1CC(Sc2ccncc2)N1` (stereo not drawn): 0.61.
For `FCC1CO1` (stereo not drawn), the logP was -0.16.
With `COC(=O)C(=O)OC`, the logP is -0.17.
On the same count and under the same terms, to `c1ccc2c(c1)CCCC2` belongs 3.49; to `CCSC`, 1.54.
`CC(C)(NC(=O)C(Br)C(C)(C)C)c1ccccc1` (stereo not drawn) displayed a logP of 3.46.
For the molecule `C=C(C)Cl`, the log partition coefficient (logP) amounted to 2.
Regarding `O=C(O)COc1ccc(N2Cc3ccccc3C2=O)cc1`, the logP was determined as 3.58.
`C[C@]12CCC(=O)C=C1CC[C@@H]1[C@@H]2CC[C@@]2(C)[C@H]1CC[C@]2(O)[C@H](O)CO` returned a logP of 2.
As for `Cn1c(N)nc2cc(Cl)ccc21`, the logP came to 2.09.
Turning to `CC(=O)C1CC1`, the lipophilicity (logP) came to 0.49.
For the setting “pH 13.0”, `NNc1ccc([N+](=O)[O-])cc1` returned a logD of 1.41.
Turning to `Nc1nc(Cl)c2ncn([C@@H]3O[C@H](CO)C[C@@H]3F)c2n1`, the logD (pH 7.0) stood at 0.28.
Where the note is “pH 7.4”, `O=[N+]([O-])c1ncn(CC(F)(F)CO)n1` showed a logD of -0.21.
Turning to `CC(C)CN(C)CC(C)C`, the logP came to 2.34.
As to `CNC1=CC(=O)c2ccccc2C1=O`, the logP came out at 1.74.
`O=[N+]([O-])c1ccc(O)c(O)c1` registered a logP of 1.66. This logP and that of the molecule before are within 0.2 log units of each other.
`CC(C)C(C)C` yielded a logP of 3.42.
Still for that read-out and setting: the same measure for `CCC12CCN(C)C(Cc3ccc(O)cc31)C2C` (stereo not drawn): -1.14; for `N#Cc1cccc(C#N)c1`: 0.8.
Take `Nc1ncc(Cc2ccccc2O)c(N)n1`: the log distribution coefficient (logD) (pH 7.4) came to 0.82.
For the molecule `CC(C)Nc1nc(N)nc(SC(F)F)n1`, the logP came out at 2.68.
Same read-out and setting: to `CCCOCCN(C(=O)CCl)c1c(CC)cccc1CC` belongs 4.08.
Turning to `OCCNCc1ccccc1`, the logD (pH 13.0) was 0.79.
Molecule `CC(C)c1ccc(O)cc1` yielded a logP of 2.9.
For `Clc1cccc2cccnc12`, where the note is “pH 7.4”, the logD was determined as 2.44.
Take `CNCCN(C)C`: the logP is -0.2.
For `Nc1cc([N+](=O)[O-])cc([N+](=O)[O-])c1`, the logP was determined as 1.89.
Take `c1ccc(Cn2cccn2)cc1`: the logP was 1.78. This logP and that of the molecule before are within 0.2 log units of each other.
The same measure, in the same setting: to `CC(C)c1ccc(C(O)C(CO)NC(=O)C(Cl)Cl)cc1` (stereo not drawn) belongs 2.24; to `Cc1[nH]oc(=O)c1/N=N/c1ccccc1Cl`, 2.6.
Where the note is “pH 13.0”, `NCCCN1CCN(CCCN)CC1` displayed a logD of -1.43.
